In ChEMBL document CHEMBL5360560, “Anti-Vibrio potential of natural products from marine microorganisms” (Eur J Med Chem, 2023):
Converted amounts (≈) assume the structure as drawn.

How the values were obtained:
Format in all cases: functional
[1] = test system: Vibrio vulnificus; experiment: Antibacterial activity against Vibrio vulnificus MCCC E1758 assessed as bacterial growth inhibition measured after 24 hrs by resazurin dye based assay
[2] = test system: Vibrio anguillarum; experiment: Antimicrobial activity against Vibrio anguillarum QDIO-1 assessed as bacterial growth inhibition
[3] = test system: Vibrio brasiliensis; experiment: Antimicrobial activity against Vibrio brasiliensis assessed as bacterial growth inhibition
[4] = test system: Vibrio scophthalmi; experiment: Antimicrobial activity against Vibrio scophthalmi assessed as bacterial growth inhibition
[5] = test system: Vibrio mediterranei; experiment: Antimicrobial activity against Vibrio mediterranei assessed as bacterial growth inhibition

`CC[C@H](C)/C=C/C1=CC2=C(Cl)C(=O)[C@@]3(C)OC(=O)C(C(=O)[C@@H](C)[C@@H](C)O)=C3C2=CN1CCOCCO` gave an MIC [1] of 7.4 µg/mL (≈ 14.2 µM).
For `CC(C)[C@@H](C)/C=C/[C@@H](C)[C@H]1CC[C@@H]2[C@]1(C)CC[C@H]1[C@]23O[C@H]3C(=O)C2=CC(=O)CC[C@@]21C`, the MIC [2] was 32 µg/mL (≈ 75.4 µM).
Work on `C=C(C(C)C)[C@H](C[C@@H](C)[C@H]1CC[C@H]2[C@@H]3C(=O)C=C4C[C@@H](O)CC[C@]4(C)[C@H]3CC[C@]12C)OC(C)=O` yielded an MIC [3] of 9 µg/mL (≈ 19.1 µM), an MIC [4] of 8 µg/mL (≈ 17 µM) and an MIC [5] of 8 µg/mL (≈ 17 µM).
